From ChEMBL document CHEMBL3627608, “Crystal structures of human RIP2 kinase catalytic domain complexed with ATP-competitive inhibitors: Foundations for understanding inhibitor selectivity” (Bioorg Med Chem, 2015)

Legend:
[1] = molecular target: Tyrosine-protein kinase Lyn (Homo sapiens) (UniProt P07948); assay: Inhibition of LYN (unknown origin) at 10 uM after 120 mins P33 radiolabeled kinase activity assay
[2] = molecular target: Serine/threonine-protein kinase 38 (Homo sapiens) (UniProt Q15208); assay: Inhibition of STK38 (unknown origin) at 10 uM after 120 mins P33 radiolabeled kinase activity assay
Serine/threonine-protein kinase 38 (Homo sapiens), sequence (Q15208 2-465 limits assumed): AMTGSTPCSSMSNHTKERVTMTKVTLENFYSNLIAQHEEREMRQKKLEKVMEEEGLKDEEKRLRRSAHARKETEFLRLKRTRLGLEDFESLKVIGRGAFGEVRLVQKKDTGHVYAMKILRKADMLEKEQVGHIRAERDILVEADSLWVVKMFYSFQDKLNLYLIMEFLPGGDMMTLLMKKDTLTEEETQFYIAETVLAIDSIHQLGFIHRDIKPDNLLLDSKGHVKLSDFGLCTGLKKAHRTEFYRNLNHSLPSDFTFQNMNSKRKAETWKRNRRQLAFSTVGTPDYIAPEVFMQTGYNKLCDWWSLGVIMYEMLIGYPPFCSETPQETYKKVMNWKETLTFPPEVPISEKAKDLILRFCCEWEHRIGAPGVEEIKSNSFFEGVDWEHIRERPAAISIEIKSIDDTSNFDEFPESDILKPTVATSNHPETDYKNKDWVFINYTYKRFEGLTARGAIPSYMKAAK

[3] = molecular target: Cyclin-dependent kinase 14 (Homo sapiens) (UniProt O94921); assay: Inhibition of PFTK1 (unknown origin) at 10 uM after 120 mins P33 radiolabeled kinase activity assay
[4] = molecular target: T1, Serine/threonine-protein kinase STK11 (Homo sapiens) (UniProt Q15831); assay: Inhibition of LKB1 (unknown origin) at 10 uM after 120 mins P33 radiolabeled kinase activity assay
T1 sequence (whole entry): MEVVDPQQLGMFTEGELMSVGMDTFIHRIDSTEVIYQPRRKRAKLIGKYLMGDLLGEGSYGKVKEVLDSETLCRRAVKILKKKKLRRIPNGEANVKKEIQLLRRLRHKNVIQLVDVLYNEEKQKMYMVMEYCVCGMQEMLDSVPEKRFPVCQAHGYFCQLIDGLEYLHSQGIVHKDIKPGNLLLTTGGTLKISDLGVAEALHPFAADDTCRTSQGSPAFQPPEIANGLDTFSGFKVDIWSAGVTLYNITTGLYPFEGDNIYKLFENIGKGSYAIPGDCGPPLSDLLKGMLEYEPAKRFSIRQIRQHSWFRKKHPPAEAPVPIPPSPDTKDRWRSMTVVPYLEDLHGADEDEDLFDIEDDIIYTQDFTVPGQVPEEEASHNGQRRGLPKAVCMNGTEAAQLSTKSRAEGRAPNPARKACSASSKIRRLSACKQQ

[5] = molecular target: Serine/threonine-protein kinase 32C (Homo sapiens) (UniProt Q86UX6); assay: Inhibition of STK32C (unknown origin) at 10 uM after 120 mins P33 radiolabeled kinase activity assay
Serine/threonine-protein kinase 32C (Homo sapiens), sequence (Q86UX6 whole entry): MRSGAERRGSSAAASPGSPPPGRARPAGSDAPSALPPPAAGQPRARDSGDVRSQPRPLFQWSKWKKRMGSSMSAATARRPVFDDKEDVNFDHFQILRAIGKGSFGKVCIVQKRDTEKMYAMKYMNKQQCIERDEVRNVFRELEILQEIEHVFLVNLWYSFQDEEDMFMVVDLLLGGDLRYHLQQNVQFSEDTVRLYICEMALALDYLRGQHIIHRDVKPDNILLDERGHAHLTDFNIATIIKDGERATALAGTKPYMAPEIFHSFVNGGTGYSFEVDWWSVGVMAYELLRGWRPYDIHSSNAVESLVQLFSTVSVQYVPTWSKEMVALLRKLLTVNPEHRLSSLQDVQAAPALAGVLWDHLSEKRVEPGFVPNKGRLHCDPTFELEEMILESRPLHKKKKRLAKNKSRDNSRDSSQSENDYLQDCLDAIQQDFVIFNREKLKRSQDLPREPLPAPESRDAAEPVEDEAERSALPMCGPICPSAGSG

[6] = molecular target: Dual specificity protein kinase CLK1 (Homo sapiens) (UniProt P49759); assay: Inhibition of CLK1 (unknown origin) at 10 uM after 120 mins P33 radiolabeled kinase activity assay
Dual specificity protein kinase CLK1 (Homo sapiens), sequence (P49759 whole entry, looked up): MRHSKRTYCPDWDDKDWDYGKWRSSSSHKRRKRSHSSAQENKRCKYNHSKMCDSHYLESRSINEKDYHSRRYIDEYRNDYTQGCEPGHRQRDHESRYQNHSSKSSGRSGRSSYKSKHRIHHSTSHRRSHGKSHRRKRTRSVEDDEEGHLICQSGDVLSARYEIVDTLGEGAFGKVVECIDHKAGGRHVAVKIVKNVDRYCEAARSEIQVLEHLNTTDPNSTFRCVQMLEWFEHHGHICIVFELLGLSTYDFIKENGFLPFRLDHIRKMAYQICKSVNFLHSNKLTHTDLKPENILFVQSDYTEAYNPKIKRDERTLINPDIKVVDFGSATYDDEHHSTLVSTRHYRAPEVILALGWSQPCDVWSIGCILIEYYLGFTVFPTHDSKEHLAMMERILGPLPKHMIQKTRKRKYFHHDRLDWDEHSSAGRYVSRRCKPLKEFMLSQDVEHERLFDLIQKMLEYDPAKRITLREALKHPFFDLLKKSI

[7] = molecular target: Tyrosine-protein kinase Yes (Homo sapiens) (UniProt P07947); assay: Inhibition of YES (unknown origin) at 10 uM after 120 mins P33 radiolabeled kinase activity assay
[8] = molecular target: Serine/threonine-protein kinase PAK 6 (Homo sapiens) (UniProt Q9NQU5); assay: Inhibition of PAK6 (unknown origin) at 10 uM after 120 mins P33 radiolabeled kinase activity assay
Serine/threonine-protein kinase PAK 6 (Homo sapiens), sequence (Q9NQU5 whole entry, looked up): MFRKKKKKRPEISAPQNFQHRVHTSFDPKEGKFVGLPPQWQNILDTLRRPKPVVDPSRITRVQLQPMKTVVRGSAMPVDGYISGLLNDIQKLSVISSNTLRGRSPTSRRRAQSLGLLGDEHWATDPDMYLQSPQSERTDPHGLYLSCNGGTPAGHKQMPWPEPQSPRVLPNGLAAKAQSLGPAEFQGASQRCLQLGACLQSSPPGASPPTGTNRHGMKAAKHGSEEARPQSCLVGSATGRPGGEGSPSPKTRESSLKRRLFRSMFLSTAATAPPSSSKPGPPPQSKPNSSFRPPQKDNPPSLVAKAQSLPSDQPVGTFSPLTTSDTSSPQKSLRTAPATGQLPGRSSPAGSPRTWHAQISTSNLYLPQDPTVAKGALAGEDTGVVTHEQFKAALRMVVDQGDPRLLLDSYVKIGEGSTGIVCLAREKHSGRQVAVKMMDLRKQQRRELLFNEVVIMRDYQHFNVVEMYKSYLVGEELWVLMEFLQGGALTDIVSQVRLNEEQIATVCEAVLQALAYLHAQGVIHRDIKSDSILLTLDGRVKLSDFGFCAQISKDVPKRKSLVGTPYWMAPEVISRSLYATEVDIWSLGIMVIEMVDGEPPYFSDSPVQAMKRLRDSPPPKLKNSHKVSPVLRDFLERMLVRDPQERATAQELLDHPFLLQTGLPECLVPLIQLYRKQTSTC

[9] = molecular target: Death-associated protein kinase 3 (Homo sapiens) (UniProt O43293); assay: Inhibition of ZIPK (unknown origin) at 10 uM after 120 mins P33 radiolabeled kinase activity assay
Death-associated protein kinase 3 (Homo sapiens), sequence (O43293 whole entry, looked up): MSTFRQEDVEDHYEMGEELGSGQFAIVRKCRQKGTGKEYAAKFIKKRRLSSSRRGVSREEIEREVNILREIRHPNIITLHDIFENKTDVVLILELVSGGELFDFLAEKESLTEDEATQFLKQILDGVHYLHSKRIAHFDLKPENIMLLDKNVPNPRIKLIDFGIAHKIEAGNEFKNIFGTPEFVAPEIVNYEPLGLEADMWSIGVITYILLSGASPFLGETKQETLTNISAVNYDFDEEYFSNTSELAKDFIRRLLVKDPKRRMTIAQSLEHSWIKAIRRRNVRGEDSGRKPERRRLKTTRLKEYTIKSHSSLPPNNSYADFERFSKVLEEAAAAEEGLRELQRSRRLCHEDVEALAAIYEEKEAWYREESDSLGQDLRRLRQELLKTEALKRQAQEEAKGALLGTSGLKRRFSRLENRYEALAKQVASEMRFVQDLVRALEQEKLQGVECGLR

[10] = molecular target: Serine/threonine-protein kinase 38-like (Homo sapiens) (UniProt Q9Y2H1); assay: Inhibition of STK38L (unknown origin) at 10 uM after 120 mins P33 radiolabeled kinase activity assay
Serine/threonine-protein kinase 38-like (Homo sapiens), sequence (Q9Y2H1 2-464 limits assumed): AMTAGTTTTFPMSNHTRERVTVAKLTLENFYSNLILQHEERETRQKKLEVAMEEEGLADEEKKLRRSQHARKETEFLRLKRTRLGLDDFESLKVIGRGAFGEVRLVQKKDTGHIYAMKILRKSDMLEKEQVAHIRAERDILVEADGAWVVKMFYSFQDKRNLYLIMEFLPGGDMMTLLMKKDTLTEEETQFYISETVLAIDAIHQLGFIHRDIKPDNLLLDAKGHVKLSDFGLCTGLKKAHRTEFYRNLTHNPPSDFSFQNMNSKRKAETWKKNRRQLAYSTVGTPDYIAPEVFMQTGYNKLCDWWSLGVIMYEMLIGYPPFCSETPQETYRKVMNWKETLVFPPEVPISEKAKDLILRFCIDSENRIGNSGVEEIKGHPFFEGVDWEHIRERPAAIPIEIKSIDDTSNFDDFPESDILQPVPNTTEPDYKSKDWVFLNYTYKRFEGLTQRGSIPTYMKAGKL

[11] = molecular target: Angiopoietin-1 receptor (Homo sapiens) (UniProt Q02763); assay: Inhibition of TIE2 (unknown origin) at 10 uM after 120 mins P33 radiolabeled kinase activity assay
Angiopoietin-1 receptor (Homo sapiens), sequence (Q02763 whole entry): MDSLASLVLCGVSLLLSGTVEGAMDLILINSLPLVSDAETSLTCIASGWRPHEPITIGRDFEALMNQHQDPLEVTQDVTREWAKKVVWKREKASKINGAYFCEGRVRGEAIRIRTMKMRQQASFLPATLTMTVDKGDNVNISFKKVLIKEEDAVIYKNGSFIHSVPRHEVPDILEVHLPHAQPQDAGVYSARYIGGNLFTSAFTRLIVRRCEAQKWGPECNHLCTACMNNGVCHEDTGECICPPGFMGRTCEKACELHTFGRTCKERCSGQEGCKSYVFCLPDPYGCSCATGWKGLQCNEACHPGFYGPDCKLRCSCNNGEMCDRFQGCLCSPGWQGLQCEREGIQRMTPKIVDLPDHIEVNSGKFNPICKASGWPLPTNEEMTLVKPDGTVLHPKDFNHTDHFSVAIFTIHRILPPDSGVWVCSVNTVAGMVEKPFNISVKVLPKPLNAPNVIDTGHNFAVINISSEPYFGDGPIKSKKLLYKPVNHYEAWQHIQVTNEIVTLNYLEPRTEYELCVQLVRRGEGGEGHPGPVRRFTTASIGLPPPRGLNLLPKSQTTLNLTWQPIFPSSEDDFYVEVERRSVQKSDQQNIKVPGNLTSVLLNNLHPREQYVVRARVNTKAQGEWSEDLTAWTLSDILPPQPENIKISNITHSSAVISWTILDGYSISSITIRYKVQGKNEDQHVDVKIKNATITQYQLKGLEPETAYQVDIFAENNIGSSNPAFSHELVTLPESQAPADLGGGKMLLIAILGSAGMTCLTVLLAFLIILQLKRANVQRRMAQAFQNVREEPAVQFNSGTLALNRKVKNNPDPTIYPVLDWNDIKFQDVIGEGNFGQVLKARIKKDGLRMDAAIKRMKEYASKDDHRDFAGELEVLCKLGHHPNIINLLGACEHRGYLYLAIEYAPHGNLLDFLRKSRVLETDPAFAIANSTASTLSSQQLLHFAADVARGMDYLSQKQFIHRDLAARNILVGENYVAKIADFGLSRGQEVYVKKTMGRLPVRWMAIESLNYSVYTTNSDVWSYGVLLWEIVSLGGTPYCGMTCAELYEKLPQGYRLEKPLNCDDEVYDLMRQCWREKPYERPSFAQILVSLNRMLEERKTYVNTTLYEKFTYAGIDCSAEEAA

[12] = molecular target: T2, Mitogen-activated protein kinase 15 (Homo sapiens) (UniProt Q8TD08); assay: Inhibition of ERK7 (unknown origin) at 10 uM after 120 mins P33 radiolabeled kinase activity assay
T2 sequence (whole entry): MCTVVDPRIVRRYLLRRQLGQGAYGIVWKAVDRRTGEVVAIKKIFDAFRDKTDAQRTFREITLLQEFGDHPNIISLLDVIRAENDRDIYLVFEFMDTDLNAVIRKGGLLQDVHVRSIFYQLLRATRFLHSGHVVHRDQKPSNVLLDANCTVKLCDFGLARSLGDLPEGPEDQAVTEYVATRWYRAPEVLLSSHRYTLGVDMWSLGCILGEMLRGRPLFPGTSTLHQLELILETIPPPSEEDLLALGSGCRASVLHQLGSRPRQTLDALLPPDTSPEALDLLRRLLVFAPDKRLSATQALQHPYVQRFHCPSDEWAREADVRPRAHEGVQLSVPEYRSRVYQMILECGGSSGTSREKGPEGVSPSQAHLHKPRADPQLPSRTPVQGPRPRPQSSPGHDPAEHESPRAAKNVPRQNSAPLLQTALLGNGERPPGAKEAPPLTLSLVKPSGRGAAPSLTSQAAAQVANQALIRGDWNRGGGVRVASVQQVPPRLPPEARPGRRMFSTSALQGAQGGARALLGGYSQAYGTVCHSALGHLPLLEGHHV

Tyrosine-protein kinase Lyn (Homo sapiens), sequence (P07948 2-512 limits assumed): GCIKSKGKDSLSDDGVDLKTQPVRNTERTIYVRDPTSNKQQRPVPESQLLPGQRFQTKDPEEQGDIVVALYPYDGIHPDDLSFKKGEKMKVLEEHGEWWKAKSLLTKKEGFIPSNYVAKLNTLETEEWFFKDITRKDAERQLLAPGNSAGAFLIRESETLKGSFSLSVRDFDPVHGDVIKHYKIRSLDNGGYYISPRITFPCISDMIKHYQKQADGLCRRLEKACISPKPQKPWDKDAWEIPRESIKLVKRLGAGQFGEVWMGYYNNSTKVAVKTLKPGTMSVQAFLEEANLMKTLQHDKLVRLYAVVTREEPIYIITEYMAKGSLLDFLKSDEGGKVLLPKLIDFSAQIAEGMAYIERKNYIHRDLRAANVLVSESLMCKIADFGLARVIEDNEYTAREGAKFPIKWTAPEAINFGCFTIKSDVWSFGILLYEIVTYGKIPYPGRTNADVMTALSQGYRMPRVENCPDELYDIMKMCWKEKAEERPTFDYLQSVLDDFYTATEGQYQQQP

Row | inhibition [1] [%] | inhibition [2] [%] | inhibition [3] [%] | inhibition [4] [%] | inhibition [5] [%] | inhibition [6] [%] | inhibition [7] [%] | inhibition [8] [%] | inhibition [10] [%] | inhibition [11] [%] | Compound | inhibition [9] [%] | inhibition [12] [%]
1 | 100 | 27.4 | 50.9 | 46.2 | 8.37 | 14.1 | 99.9 | 17.4 | 22.4 | 97 | CS(=O)(=O)c1cccc(Nc2nccc(-c3sc(N4CCOCC4)nc3-c3cccc(NS(=O)(=O)c4c(F)cccc4F)c3)n2)c1 | 50.7 | 87
2 | 61.6 | 3.88 | -3.92 | 3.09 | 13 | 13.4 | 70.8 | 3.33 | 7.36 | 4.75 | COCCNC(=O)c1ccc2c(c1)nc(-c1cnc(-c3ccc(Cl)cc3)[nH]1)n2CCOC | 3.1 | 0.89
3 | 98.2 | 3.87 | 86.7 | 3.9 | 12.9 | 50.7 | 82 | 8.88 | 33.7 | 69.2 | CC(C)(C)c1cc(NC(=O)Nc2ccc(Oc3ccncc3)cc2)no1 | 35.6 | 99.8
